Results: the NIST ThermoML archive (doi:10.1021/acs.jced.9b00846)

Settings: Liquid, Vibrating tube method

CC(C)CC(C)C [2,4-dimethylpentane]
Settings	mass density [kg/m3]
283.15 K, 95 kPa	681.7
283.15 K, 4961 kPa	686.3
283.15 K, 9969 kPa	690.9
283.15 K, 14980 kPa	695.1
283.15 K, 19985 kPa	699.1
283.15 K, 25039 kPa	702.9
283.15 K, 30016 kPa	706.5
283.15 K, 35089 kPa	710
283.15 K, 40016 kPa	713.3
283.15 K, 45012 kPa	716.4
283.15 K, 49972 kPa	719.5
283.15 K, 54980 kPa	722.4
283.15 K, 59931 kPa	725.3
283.15 K, 65047 kPa	728.1
288.15 K, 127 kPa	677.3
288.15 K, 4984 kPa	682.2
288.15 K, 9987 kPa	686.8
288.15 K, 14976 kPa	691.2
288.15 K, 19996 kPa	695.3
288.15 K, 24895 kPa	699.2
288.15 K, 30002 kPa	703
288.15 K, 34983 kPa	706.5
288.15 K, 40000 kPa	709.9
288.15 K, 44974 kPa	713.1
288.15 K, 49950 kPa	716.2
288.15 K, 55010 kPa	719.3
288.15 K, 60065 kPa	722.2
288.15 K, 64958 kPa	725
293.15 K, 83 kPa	672.8
293.15 K, 4982 kPa	677.9
293.15 K, 9969 kPa	682.7
293.15 K, 15059 kPa	687.3
293.15 K, 19914 kPa	691.5
293.15 K, 25056 kPa	695.6
293.15 K, 29936 kPa	699.3
293.15 K, 34976 kPa	703
293.15 K, 39994 kPa	706.4
293.15 K, 44992 kPa	709.8
293.15 K, 50030 kPa	713
293.15 K, 54953 kPa	716
293.15 K, 59933 kPa	719
293.15 K, 65045 kPa	721.9
298.15 K, 92 kPa	668.3
298.15 K, 4941 kPa	673.6
298.15 K, 9982 kPa	678.6
298.15 K, 14991 kPa	683.3
298.15 K, 19963 kPa	687.6
298.15 K, 25048 kPa	691.8
298.15 K, 29972 kPa	695.7
298.15 K, 34945 kPa	699.4
298.15 K, 39958 kPa	702.9
298.15 K, 45007 kPa	706.4
298.15 K, 49963 kPa	709.6
298.15 K, 55008 kPa	712.8
298.15 K, 60003 kPa	715.8
298.15 K, 65017 kPa	718.8
303.15 K, 72 kPa	663.8
303.15 K, 4969 kPa	669.3
303.15 K, 9974 kPa	674.5
303.15 K, 14963 kPa	679.3
303.15 K, 19981 kPa	683.9
303.15 K, 25047 kPa	688.2
303.15 K, 29954 kPa	692.1
303.15 K, 34987 kPa	695.9
303.15 K, 39964 kPa	699.6
303.15 K, 45006 kPa	703.1
303.15 K, 49991 kPa	706.4
303.15 K, 55060 kPa	709.7
303.15 K, 59991 kPa	712.8
303.15 K, 65054 kPa	715.8
308.15 K, 100 kPa	659.4
308.15 K, 4987 kPa	665.1
308.15 K, 9965 kPa	670.4
308.15 K, 15040 kPa	675.5
308.15 K, 19960 kPa	680.1
308.15 K, 24964 kPa	684.4
308.15 K, 30076 kPa	688.7
308.15 K, 34985 kPa	692.5
308.15 K, 39972 kPa	696.2
308.15 K, 44972 kPa	699.8
308.15 K, 49955 kPa	703.2
308.15 K, 54996 kPa	706.5
308.15 K, 60063 kPa	709.7
308.15 K, 65021 kPa	712.7
313.15 K, 108 kPa	654.9
313.15 K, 5004 kPa	660.8
313.15 K, 10013 kPa	666.4
313.15 K, 15049 kPa	671.6
313.15 K, 19963 kPa	676.3
313.15 K, 25062 kPa	680.9
313.15 K, 29960 kPa	685
313.15 K, 34942 kPa	689
313.15 K, 40039 kPa	692.9
313.15 K, 45017 kPa	696.6
313.15 K, 50065 kPa	700.1
313.15 K, 54977 kPa	703.4
313.15 K, 59923 kPa	706.6
313.15 K, 64996 kPa	709.7
318.15 K, 110 kPa	650.2
318.15 K, 5061 kPa	656.5
318.15 K, 9957 kPa	662.2
318.15 K, 15002 kPa	667.6
318.15 K, 19980 kPa	672.5
318.15 K, 25013 kPa	677.1
318.15 K, 30045 kPa	681.5
318.15 K, 34965 kPa	685.6
318.15 K, 39938 kPa	689.5
318.15 K, 44971 kPa	693.2
318.15 K, 49989 kPa	696.8
318.15 K, 55009 kPa	700.2
318.15 K, 59952 kPa	703.5
318.15 K, 65056 kPa	706.7
323.15 K, 121 kPa	645.6
323.15 K, 5001 kPa	652.1
323.15 K, 10007 kPa	658.1
323.15 K, 15037 kPa	663.6
323.15 K, 19969 kPa	668.7
323.15 K, 25018 kPa	673.5
323.15 K, 29938 kPa	677.9
323.15 K, 35006 kPa	682.2
323.15 K, 39965 kPa	686.1
323.15 K, 45012 kPa	690
323.15 K, 49970 kPa	693.6
323.15 K, 54953 kPa	697.1
323.15 K, 59965 kPa	700.4
323.15 K, 65022 kPa	703.7
328.15 K, 98 kPa	641
328.15 K, 5010 kPa	647.8
328.15 K, 9934 kPa	653.9
328.15 K, 14950 kPa	659.6
328.15 K, 19968 kPa	664.9
328.15 K, 25011 kPa	669.8
328.15 K, 30040 kPa	674.5
328.15 K, 34952 kPa	678.7
328.15 K, 39959 kPa	682.8
328.15 K, 45017 kPa	686.8
328.15 K, 49935 kPa	690.4
328.15 K, 54941 kPa	694
328.15 K, 59962 kPa	697.4
328.15 K, 65006 kPa	700.8
333.15 K, 92 kPa	636.3
333.15 K, 4968 kPa	643.3
333.15 K, 9977 kPa	649.8
333.15 K, 15014 kPa	655.7
333.15 K, 19986 kPa	661.1
333.15 K, 25001 kPa	666.2
333.15 K, 29959 kPa	670.9
333.15 K, 34922 kPa	675.3
333.15 K, 39972 kPa	679.5
333.15 K, 45064 kPa	683.6
333.15 K, 50006 kPa	687.3
333.15 K, 54975 kPa	691
333.15 K, 59984 kPa	694.5
333.15 K, 64995 kPa	697.8
338.15 K, 107 kPa	631.7
338.15 K, 5007 kPa	639.1
338.15 K, 9978 kPa	645.7
338.15 K, 14968 kPa	651.8
338.15 K, 19968 kPa	657.4
338.15 K, 25042 kPa	662.7
338.15 K, 30018 kPa	667.5
338.15 K, 35052 kPa	672.1
338.15 K, 39990 kPa	676.3
338.15 K, 45087 kPa	680.5
338.15 K, 49968 kPa	684.3
338.15 K, 55044 kPa	688.1
338.15 K, 60031 kPa	691.6
338.15 K, 64997 kPa	695
343.15 K, 98 kPa	626.8
343.15 K, 4944 kPa	634.4
343.15 K, 10008 kPa	641.5
343.15 K, 14958 kPa	647.7
343.15 K, 19959 kPa	653.5
343.15 K, 25045 kPa	658.9
343.15 K, 30012 kPa	663.9
343.15 K, 34980 kPa	668.5
343.15 K, 40024 kPa	672.9
343.15 K, 44956 kPa	677.1
343.15 K, 50037 kPa	681.1
343.15 K, 55010 kPa	684.9
343.15 K, 59979 kPa	688.5
343.15 K, 65088 kPa	692.1
348.15 K, 103 kPa	622
348.15 K, 4998 kPa	630
348.15 K, 9948 kPa	637.2
348.15 K, 15016 kPa	643.8
348.15 K, 19991 kPa	649.7
348.15 K, 25051 kPa	655.3
348.15 K, 29994 kPa	660.3
348.15 K, 34970 kPa	665.1
348.15 K, 39979 kPa	669.6
348.15 K, 45063 kPa	673.9
348.15 K, 50024 kPa	678
348.15 K, 54974 kPa	681.8
348.15 K, 59994 kPa	685.5
353.15 K, 1014 kPa	618.8
353.15 K, 5010 kPa	625.6
353.15 K, 9950 kPa	633
353.15 K, 15037 kPa	639.9
353.15 K, 19996 kPa	646
353.15 K, 25024 kPa	651.7
353.15 K, 29983 kPa	656.9
353.15 K, 34950 kPa	661.8
353.15 K, 40060 kPa	666.5
353.15 K, 45017 kPa	670.8
353.15 K, 49987 kPa	674.9
353.15 K, 54976 kPa	678.9
353.15 K, 59989 kPa	682.7
358.15 K, 5026 kPa	621
358.15 K, 9954 kPa	628.7
358.15 K, 15017 kPa	635.8
358.15 K, 19926 kPa	642
358.15 K, 25014 kPa	647.9
358.15 K, 30045 kPa	653.4
358.15 K, 35004 kPa	658.3
358.15 K, 40013 kPa	663.1
358.15 K, 44988 kPa	667.5
358.15 K, 49996 kPa	671.7
358.15 K, 55037 kPa	675.8
358.15 K, 60020 kPa	679.6
358.15 K, 65016 kPa	683.3
363.15 K, 4947 kPa	616.2
363.15 K, 10031 kPa	624.5
363.15 K, 15019 kPa	631.7
363.15 K, 19970 kPa	638.2
363.15 K, 25122 kPa	644.3
363.15 K, 30059 kPa	649.8
363.15 K, 35064 kPa	654.9
363.15 K, 40055 kPa	659.8
363.15 K, 45078 kPa	664.3
363.15 K, 49933 kPa	668.5
363.15 K, 54989 kPa	672.7
363.15 K, 59992 kPa	676.6
363.15 K, 65058 kPa	680.3
